Columns and labels:
MRP2 [1] = experiment: Effect of MRP2 inhibitor on TSG transport across Caco-2 cell monolayer; format: in vitro ADME
Method: The effect of efflux protein inhibitors on the intestinal absorption of TSG was studied based on Caco-2 cell monolayer model. […] Before the administration, the inhibitor was added to AP side and BL side, and the plate was placed in an incubator. After 30 min, the inhibitor solution was replaced with TSG solution at concentration of 30 μg·mL^− 1 to inspect the effect of efflux proteins on TSG.
Then, the supernatant was analyzed by HPLC. HPLC separation was performed on Eclipse Plus C18 column (4.6 mm × 250 mm, 5 μm) at 30 °C. The mobile phase consisted of acetonitrile and 0.1% formic acid water (25:75) and the velocity of flow is 1 mL·min^− 1. The injected sample volume was 5 μL. TSG was detected at wavelength of 320 nm.
(§1) (1): 1 Papp=dQ/dt×1/A×1/C0

MRP2 [2] = target: T1, MRP2 (Rattus norvegicus, UniProt Q63120); experiment: Effect of MRP2 inhibitor on intestinal absorption of TSG, in situ perfusion; format: in vivo
T1 construct: from tissue; host or cells: rat small intestine, perfused in situ
T1 sequence (Q63120 whole entry, the tested form may be a part): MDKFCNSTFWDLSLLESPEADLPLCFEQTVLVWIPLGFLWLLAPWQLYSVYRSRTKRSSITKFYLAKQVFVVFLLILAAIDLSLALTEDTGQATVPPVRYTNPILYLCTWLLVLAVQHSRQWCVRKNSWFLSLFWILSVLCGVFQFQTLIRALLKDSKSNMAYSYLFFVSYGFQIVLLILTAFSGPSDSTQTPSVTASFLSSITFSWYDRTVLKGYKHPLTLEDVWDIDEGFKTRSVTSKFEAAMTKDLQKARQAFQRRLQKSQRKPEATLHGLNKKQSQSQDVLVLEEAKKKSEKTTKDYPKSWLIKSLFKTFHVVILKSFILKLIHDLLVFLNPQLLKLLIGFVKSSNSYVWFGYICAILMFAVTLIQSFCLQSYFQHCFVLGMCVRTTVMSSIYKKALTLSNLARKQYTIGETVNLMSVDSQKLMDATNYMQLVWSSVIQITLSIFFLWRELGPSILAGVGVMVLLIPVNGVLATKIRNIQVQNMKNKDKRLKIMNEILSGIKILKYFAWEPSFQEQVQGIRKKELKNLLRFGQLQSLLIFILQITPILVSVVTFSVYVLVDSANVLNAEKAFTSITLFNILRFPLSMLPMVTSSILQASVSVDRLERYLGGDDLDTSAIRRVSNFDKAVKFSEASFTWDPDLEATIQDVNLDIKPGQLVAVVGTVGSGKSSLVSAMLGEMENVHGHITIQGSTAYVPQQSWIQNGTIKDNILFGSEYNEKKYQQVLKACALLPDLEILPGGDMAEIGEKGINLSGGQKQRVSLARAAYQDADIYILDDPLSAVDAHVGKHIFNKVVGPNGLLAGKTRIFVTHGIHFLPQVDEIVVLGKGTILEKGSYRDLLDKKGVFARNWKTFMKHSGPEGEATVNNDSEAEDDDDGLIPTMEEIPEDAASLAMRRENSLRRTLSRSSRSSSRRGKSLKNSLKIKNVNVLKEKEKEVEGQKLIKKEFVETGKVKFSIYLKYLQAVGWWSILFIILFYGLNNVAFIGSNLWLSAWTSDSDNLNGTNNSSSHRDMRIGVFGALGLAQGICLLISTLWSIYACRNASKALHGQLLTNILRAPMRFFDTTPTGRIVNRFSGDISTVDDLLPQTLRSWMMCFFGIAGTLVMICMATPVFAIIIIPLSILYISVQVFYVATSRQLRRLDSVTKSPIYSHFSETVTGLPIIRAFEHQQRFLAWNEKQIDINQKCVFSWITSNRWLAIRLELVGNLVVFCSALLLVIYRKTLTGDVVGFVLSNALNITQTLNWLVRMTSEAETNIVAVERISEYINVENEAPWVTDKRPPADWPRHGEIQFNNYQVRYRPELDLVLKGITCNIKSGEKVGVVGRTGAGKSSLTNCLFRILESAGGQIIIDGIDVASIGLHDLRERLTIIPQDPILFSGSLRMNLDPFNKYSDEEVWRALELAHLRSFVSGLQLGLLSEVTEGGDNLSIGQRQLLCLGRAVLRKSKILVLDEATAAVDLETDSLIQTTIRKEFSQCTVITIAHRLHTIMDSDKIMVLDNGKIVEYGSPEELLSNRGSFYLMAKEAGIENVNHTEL
Method: The perfusion was started with inhibitor solution at a flow rate of 2 mL·min^− 1, and after 30 min, it was replaced with TSG solution to investigate the influences of efflux proteins on TSG.
(§2) 1 mL sample was mixed with equal amount of methanol, filtered through a membrane filter (0.45 μm pore size), and centrifuged at 12000 r·min^− 1 for 10 min. […] The mobile phase consisted of (A) 0.1% formic acid water and (B) acetonitrile. The gradient elution was set as: linear gradient elution 20–35% B (0-15 min) with a flow rate of 1 mL·min^− 1. The injected sample volume was 5 μL. TSG was detected at wavelength of 320 nm and phenol red was detected at wavelength of 430 nm. The concentration of phenol red was used to correct the volume of intestinal circulating fluid. The concentration of TSG and the volume of intestinal circulating fluid in each time period was used to calculate the residual drug amount (X). With the sampling time t as independent variable and lnX as dependent variable, the absorption rate constant Ka was determined from the slope of the straight line. The drug absorption percentage were calculated by the ratio of the change value of the remaining dose of t (h) to the amount of the remaining drug at time 0.
(§3) The absorption rate constants (Ka) and percentage of absorption (PA, %) were calculated using the following eqs. (3), (4), respectively.
(§4) Where X was the residual drug amount, C0 was the drug concentration of intestinal circulation liquid at 0 min, V0 was the drug volume of intestinal circulation liquid at 0 min, Ct was the drug concentration of intestinal circulation liquid at t min, Vt was the drug volume of intestinal circulation liquid at t min, t was the perfusion time.

Caco-2 cells = experiment: MTT cytotoxicity of TSG for Caco-2 cells; format: cell-based
Method: (§5) MTT assay was firstly used to investigate the effect of TSG with different concentrations on Caco-2 cells vitality. Briefly, Caco-2 cells were seeded in 96-wells plates at a density of 1 × 10^4 cells per well and placed in a 5% carbon dioxide incubator. After 48 h incubation, the cells were treated with increasing concentrations of TSG (0.75–240 μg·mL^− 1) and DMEM (containing 1%FBS) as a negative control. After 5 h of incubation, 20 μL of 5 mg·mL^− 1 MTT was added to each well, and the plate was incubated at 37 °C for 4 h. Then 150 μL of DMSO was added to each well after the supernatant was discarded. Absorbance was measured at a wavelength of 570 nm.

[3] = MTT cytotoxicity of TSG for Caco-2 cells; format: cell-based; settings: human; Caco-2 cells, 60 μg·mL^− 1 TSG, 5 h, MTT; read-out: cell viability
Method: as §5

MRP2 [4] = experiment: Western blotting, expression of MRP2 in Caco-2 cells after TSG; format: cell-based; settings: TSG 10, 30 and 60 μg·mL^− 1, 4 h; significant at 30 and 60 μg·mL^− 1 (p < 0.05)
Method: (§6) When Caco-2 cells grew to 80–90%, the cell were treated with different concentrations (10, 30 and 60 μg·mL^− 1) of TSG and blank medium solution (blank control group). […] The concentration of total proteins was detected by BCA kit, and the supernatant were mix with SDS-PAGE sample buffer after protein quantification, denatured on a heater for 5 min and stored.
(§7) The total proteins were electrophoresed in 10% SDS-PAGE gel and then transferred to PVDF membranes by wet process to block with 5% skim milk for 2 h at room temperature. Membranes were incubated overnight with the following primary antibodies Anti-P glycoprotein antibody (1:2000), Anti-MRP2 antibody (1:500), and GAPDH polyclonal antibody. After that, the membranes were washed with 0.1% TBST for 3 times and 10 min each time and incubated with corresponding secondary antibody (1:5000) for 1 h at room temperature. The OD density values of bands were analyzed using gel imaging and analysis system.

Caco-2 cell monolayer = experiment: Bidirectional transport across Caco-2 cell monolayer (Papp); format: in vitro ADME
Method: Then, the supernatant was analyzed by HPLC. […] The injected sample volume was 5 μL. TSG was detected at wavelength of 320 nm.
as §1

[5] = set-up: method as in PMID 23371758; settings: rats plasma, two-compartment model; cited from earlier work
P-gp = experiment: Western blotting, expression of P-gp in Caco-2 cells after TSG; format: cell-based; settings: TSG 10, 30 and 60 μg·mL^− 1, 4 h; significant at 60 μg·mL^− 1 (p < 0.05)
Method: as §6, §7

[6] = In situ single-pass intestinal perfusion of TSG in rats (Ka, PA); format: in vivo, rat
Method: The proper amount of TSG was accurately weighed, and the intestinal circulation liquid with a concentration of 10, 30 and 60 μg·mL^− 1 was prepared by using a blank intestinal circulation solution.
24 SD rats, half male and half female, were fasted for 12 h but permitted to drink water freely before surgery. Rats were anesthetized by intraperitoneal injection of 25% urethane ([…]) and placed in a supine position on the operating table. The abdominal cavity was opened along the midline of the abdomen, then the incision was made at the duodenum and the ileum. The polyethylene tubes were carefully inserted at both sides of the segment and ligatured with a sterile surgical line. The contents of the intestines were slowly rinsed with 0.9% saline, prewarmed at 37 °C, and the residual liquid in the intestine was drained with air. Afterward, the wound in the abdomen of the rats was covered with a gauze soaked with 37 °C 0.9% saline buffer to moisturize after the operation, warmed with infrared lamp. The intestinal was equilibrated with a drug-containing perfusate (the concentration of TSG was 10, 30 and 60 μg·mL^− 1 respectively) which was preheated at 37 °C at a flow rate of 5 mL·min^− 1. Samples were collected in EP tubes after 10 min, and blank intestinal circulation solution (1 mL) was quickly added to circulatory solution. After that, the flow rate was adjusted to 2 mL·min^− 1, and the samples were taken at 10 min intervals for 4 h. In addition, in order to study the effects of different pH on intestinal absorption of TSG, the pH of the blank intestinal circulation solution was adjusted to 5.4 and 6.4, respectively. Finally, the experimental animals were euthanized by the method of rapid decapitation when the experiment was over. The procedures and precautions for sacrifice were the same as previously described.
as §2, §3, §4

[7] = In situ gastric perfusion of TSG in rats; format: in vivo; settings: rat
Method: According to the Chinese Pharmacopoeia, the artificial gastric juice without pepsin is configured under the time limit inspection method of disintegration.
The appropriate amount of TSG was accurately weighed, and the gastric perfusate was prepared at a concentration of 10, 30 and 60 μg·mL^− 1 using artificial gastric juice.
24 SD rats, half male and half female, were fasted for 12 h but permitted to drink water freely before surgery. Rats were anesthetized by intraperitoneal injection of 25% urethane ([…]) and placed in a supine position on the operating table. The abdominal cavity was opened along the midline of the abdomen, then the incision was made at the duodenum and the ileum. The polyethylene tubes were carefully inserted at both sides of the segment and ligatured with a sterile surgical line. […]
1 mL sample was mixed with equal amount of methanol, filtered through a membrane filter (0.45 μm pore size), and centrifuged at 12000 r·min^− 1 for 10 min. […] TSG was detected at wavelength of 320 nm and phenol red was detected at wavelength of 430 nm. […] With the sampling time t as independent variable and lnX as dependent variable, the absorption rate constant Ka was determined from the slope of the straight line. The drug absorption percentage were calculated by the ratio of the change value of the remaining dose of t (h) to the amount of the remaining drug at time 0.

[8] = inhibitor 5 μg·mL^− 1, TSG 30 μg·mL^− 1, compared with TSG alone
[9] = inhibitor 25 μg·mL^− 1, TSG 30 μg·mL^− 1, compared with TSG alone
[10] = inhibitor 25 μg·mL^− 1, p < 0.05, rat

CCCN(CCC)S(=O)(=O)c1ccc(C(=O)O)cc1 [probenecid]
increase of Papp values of TSG, AP-BL side (MRP2 [1]; [8]): ~2.22 times | increase of Papp values of TSG, BL-AP side (MRP2 [1]; [8]): ~1.82 times | increase of Papp values of TSG, AP-BL side (MRP2 [1]; [9]): ~3.02 times | increase of Papp values of TSG, BL-AP side (MRP2 [1]; [9]): ~1.91 times | Ka values of TSG in presence of inhibitor (MRP2 [2]; [10]): significantly enhanced | PA values of TSG in presence of inhibitor (MRP2 [2]; [10]): significantly enhanced

OC[C@H]1O[C@@H](Oc2c(O)cc(O)cc2/C=C/c2ccc(O)cc2)[C@H](O)[C@@H](O)[C@@H]1O [TSG, 2,3,5,4′-tetrahydroxystilbene-2-O-β-D-glucoside]
cell viability (Caco-2 cells; Caco-2 cells, TSG more than 60 μg·mL^− 1, MTT): significantly decreased | toxicity on Caco-2 cells (Caco-2 cells; TSG 0.75–60 μg·mL^− 1, MTT): basically no toxicity | viability at 5 h, 60 μg·mL^-1 [3]: > 90% | expression of MRP2 in cells (MRP2 [4]): decreased | bilateral (AP-BL and BL-AP) Papp versus concentration (Caco-2 cell monolayer; 10, 30 and 60 μg·mL^− 1): decreased substantially with increasing concentration | absorption class from Papp (Caco-2 cell monolayer; Caco-2 cell monolayer): moderately absorbed drug | Papp values of bidirectional transport versus pH (Caco-2 cell monolayer; TSG 30 μg·mL^− 1, pH 7.4, 6.4, 5.4): increased significantly with the decrease of pH value | time at which bilateral Papp values reached the maximum (Caco-2 cell monolayer; after administration, 10, 30 and 60 μg·mL^− 1): 1 h | absorption half-life (t1/2Ka) [5]: 14.80 min | maximal concentration (Cmax) [5]: 5.70 μg·mL^− 1 | expression of P-gp in Caco-2 cells (P-gp): increased with concentration | absorption rate in the intestine ([6]; in situ perfusion, rat): lower than 20% | Ka between pH 6.4 and 7.4 ([6]; rat intestinal perfusion, p < 0.01): significant increase | PA value of pH 7.4 versus pH 6.4 and 5.4 ([6]; rat intestinal perfusion, p < 0.05): significantly different | absorption rate constant (Ka) at 10 μg·mL^− 1 versus 30 and 60 μg·mL^− 1 ([6]; rat small intestine, p < 0.05): significantly greater | percentage of absorption (PA) at 10 μg·mL^− 1 versus 30 and 60 μg·mL^− 1 ([6]; rat small intestine, p < 0.05): significantly greater | absorption in stomach ([7]; TSG 10, 30 and 60 μg·mL^− 1): well absorbed | absorption in stomach versus concentration ([7]; TSG 10, 30 and 60 μg·mL^− 1, p < 0.05): increased significantly with concentration | substrate of efflux protein MRP2 (MRP2 [2]; conclusion from in situ transport data): may be the substrate

— publication PMC6977318, “In vitro and in situ study on characterization and mechanism of the intestinal absorption of 2,3,5,4′-tetrahydroxy-stilbene-2-O-β-D-glucoside” (BMC Pharmacology & Toxicology, 2020)
